Test results published in patent publication US20250302775A1, “METHODS FOR THE TREATMENT OF DEPRESSION” (Autobahn Therapeutics, Inc., priority 2022, published 2025).

Legend:
[1] = tissue distribution (TD) assay in mouse, brain and plasma; assay type: in vivo, male C57BL/6 mouse; conditions: for AUC: male, C57BL/6, mouse, plasma, po, 100 ug/kg; for Brain AUC: single PO 100 μg/kg, male C57BL/6 mouse, AUC 0-24 hr
[2] = brain and plasma concentration in rat cuprizone model after 21 days repeat administration; assay type: in vivo; conditions: 21 days repeat administration 30 or 100 μg/kg, 4 hours post-final dose
Procedure: In vivo brain exposure of active compound compared to prodrug was assessed via tissue distribution (TD) assay in mouse and rat cuprizone model, measured as brain exposure ratio of brain to plasma following thyromimetic treatment. […] Table 3 also depicts brain-to-plasma AUC ratio.

[3] = target: T1, recombinant human FAAH (rhFAAH) (Homo sapiens, UniProt O00519); experiment: FAAH substrate evaluation: formation of acid metabolite; assay type: biochemical; conditions: 0.5 ng/μL rhFAAH, 1 μM test compound, room temperature, pH 8.0, 0-60 minutes
T1 construct: purchased Cayman Chemical (Ann Arbor, MI, USA)
T1 sequence (O00519 1-579): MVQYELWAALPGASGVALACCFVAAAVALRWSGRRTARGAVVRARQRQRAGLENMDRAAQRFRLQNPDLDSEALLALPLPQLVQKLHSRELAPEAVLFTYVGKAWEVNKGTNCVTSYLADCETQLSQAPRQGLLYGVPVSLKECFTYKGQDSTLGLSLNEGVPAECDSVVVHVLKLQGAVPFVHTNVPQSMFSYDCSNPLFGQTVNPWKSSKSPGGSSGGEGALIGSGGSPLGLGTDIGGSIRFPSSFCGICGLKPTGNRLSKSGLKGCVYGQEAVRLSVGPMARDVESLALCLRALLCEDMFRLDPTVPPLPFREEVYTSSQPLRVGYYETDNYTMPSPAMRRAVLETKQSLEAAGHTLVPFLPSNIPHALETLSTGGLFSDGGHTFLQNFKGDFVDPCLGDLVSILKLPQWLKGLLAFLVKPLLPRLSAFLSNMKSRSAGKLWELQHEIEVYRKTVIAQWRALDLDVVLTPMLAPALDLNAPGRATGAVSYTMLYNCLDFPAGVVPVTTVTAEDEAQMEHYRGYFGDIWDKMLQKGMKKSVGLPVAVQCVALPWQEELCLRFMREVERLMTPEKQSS
Procedure: Purified recombinant human FAAH (rhFAAH) was purchased from Cayman Chemical (Ann Arbor, MI, USA). The total volume for each incubation was 400 μL containing a final 0.5 ng/μL rhFAAH, 1 μM test compound, 1.25% ethanol or 1 μM PF-3845 (FAAH inhibitor), and 0.1% bovine serum albumin in Tris-EDTA buffer at pH 8.0). The positive control was LL-341001. The incubation was conducted at the room temperature. At 0, 5, 15, 30 and 60 minutes, an aliquot of 30 μL reaction mixtures was removed and mixed with 300 μL acetonitrile containing 5 ng/mL terfenadine and 10 ng/mL tolbutamide as internal standards to quench the reaction. The resulting mixture was centrifuged at 4000 rpm, 4° C. for 15 minutes, and 100 μL supernatant was ready for LC-MS/MS analysis to measure the formation of acid metabolite.
Acquity Ultra Performance LC system from Waters was used for sample analysis. The chromatography was performed on a reverse phase Kinetex 2.6 μm C18 column, 2.1×30 mm, 100 Å. The mobile phase A comprised of 0.1% formic acid in water and mobile phase B comprised of 0.1% formic acid in acetonitrile with a 2-min run time at the flow rate of 0.8 mL/min for the acid metabolite from positive control or a 1.5 min run time at the flow rate of 0.9 mL/min for the acid metabolite of test compounds. The mass spectrometer (API-5500 and API Q Trap 4000 Applied Biosystems/MDS SCIEX Instruments, Framingham, MA, USA) was operated under ESI positive or negative ion MRM mode.
The formation of acid metabolite was monitored and quantified using one calibration point of 1 μM. The observed rate constant (ke) for the acid metabolite formation was calculated by plotting the metabolite concentration versus time of incubation with the slope being ke and is shown in Table 1.

[4] = test system: T3-responsive target genes; experiment: expression of T3-responsive target genes in brain, single PO administration; assay type: in vivo, male C57BL/6 mouse; conditions: LL-341070 about 0.1 to about 300 μg/kg, T3 about 300 μg/kg
[5] = test system: T3-responsive target genes; experiment: expression of T3-responsive target genes in brain, rat cuprizone model; assay type: in vivo; conditions: 21 day repeat administration; LL-341070 30 or 100 μg/kg, T3 300 μg/kg; Nanostring

| Structure (SMILES) | AUC [1] [ng·h/mL] | Brain AUC [1] [ng·h/mL] | brain exposure compared to prodrug LL-341070 [2] | ke (observed rate constant for the acid metabolite formation) [3] | expression of Hr, Dio3, Klf9 in brain [4] | expression of T3-responsive genes in brain [5] |
| --- | --- | --- | --- | --- | --- | --- |
| CC(C)c1c(O)ccc(Cc2c(Cl)cc(OCC(=O)O)cc2Cl)c1F [LL-341070A] | 35.8 | 73.9 | enhanced brain exposure |  |  |  |
| CNC(=O)COc1cc(Cl)c(Cc2ccc(O)c(C(C)C)c2F)c(Cl)c1 [Compound 31] | 18.8 | 10.9 |  | A (A = ke is more than or equal to 0.1) | increases expression of Hr, Dio3, Klf9 | expression increase was confirmed |
